The structures appear in SMILES notation. pEC50: −log10 of the molar value. Some results are limits rather than exact numbers.

One may read the pEC50 as −log10 of the EC50, conventionally taken in molar units. A word on the Tmax: it is the time from dosing to the highest level.

Data set [1] has as its system Human immunodeficiency virus 1. Description: Antiviral activity against HIV1 3B infected in human MT4 cells assessed as reduction in virus-induced cytopathic effect after 5 days by MTT assay. The note with it: Human immunodeficiency virus 1, 3B, MT4, 120 h. Format: functional, organism-based. A general note: Cytopathic effects are the visible damage that an infection or toxin causes in cultured cells.

The nature of data set [2]: Selectivity index, ratio of CC50 for human MT4 cells to EC50 for HIV1 3B infected in human MT4 cells. The note with it: read-out: Ratio CC50/EC50. Format: toxicity, cell-based.
Data set [3] deals with C-X-C chemokine receptor type 4 (Homo sapiens, UniProt P61073). Description: Displacement of [125I]SDF-1 from human CXCR4 expressed in HEK293 cell membrane. It is filed as cell membranes. In general terms: Displacement assays read how much labelled ligand stays bound in the presence of the test substance.
Chain of C-X-C chemokine receptor type 4 (P61073 whole entry): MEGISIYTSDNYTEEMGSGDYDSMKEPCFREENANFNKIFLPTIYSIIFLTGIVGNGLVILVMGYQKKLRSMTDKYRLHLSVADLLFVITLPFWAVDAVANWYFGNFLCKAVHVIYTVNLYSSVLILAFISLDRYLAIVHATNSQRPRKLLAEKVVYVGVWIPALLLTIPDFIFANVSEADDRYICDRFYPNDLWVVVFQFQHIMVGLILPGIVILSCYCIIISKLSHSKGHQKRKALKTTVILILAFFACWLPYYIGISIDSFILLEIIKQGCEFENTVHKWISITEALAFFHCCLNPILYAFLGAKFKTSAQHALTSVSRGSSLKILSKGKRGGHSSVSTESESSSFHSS
For data set [4], the system named is Human immunodeficiency virus. As to the kind of experiment: Antiviral activity against HIV LAV Clade B infected in human MT4 cells assessed as inhibition of syncytia formation preincubated with cells for 1 hr followed by viral infection […] by inverted optical microscopic analysis. It is filed as functional, organism-based. The note with it: Human immunodeficiency virus 1, LAV Clade B.

Data set [5] in a line: Selectivity index, ratio of CC50 for human MT4 cells to EC50 for HIV LAV Clade B infected in human MT4 cells. It is filed as toxicity, cell-based. The note with it: read-out: Ratio CC50/EC50.
For data set [6], the system named is Human immunodeficiency virus 1. As to the kind of experiment: Antiviral activity against HIV1 clinical isolate R5/X4 by cell based assay. It is filed as functional, organism-based. The following applies: Human immunodeficiency virus 1, isolate R5/X4.
In data set [7] the test system is Human immunodeficiency virus 1. As to the kind of experiment: Antiviral activity against HIV1 clinical isolate R5 by cell based assay. Format: functional, organism-based. The note with it: Human immunodeficiency virus 1, isolate R5.
The subject of data set [8] is Human immunodeficiency virus 1. Description: Antiviral activity against HIV1 clinical isolate X4 by cell based assay. It is filed as functional, organism-based. The following applies: Human immunodeficiency virus 1, isolate X4.
Data set [9] relates to Human immunodeficiency virus 1. As to the kind of experiment: Antiviral activity against HIV1 NL4-3 clinical isolate X4 infected in human MT4 cells assessed as reduction in virus-induced cytopathic effect after 5 days by MTT assay. It is filed as functional, organism-based. The following applies: Human immunodeficiency virus 1, NL4-3 isolate X4, MT4, 120 h.
A short description of data set [10]: Tmax in Swiss Webster mouse plasma at 25 mg/kg, sc by LC-MS/MS analysis. It is filed as ADME, organism-based.
A short description of data set [11]: Elimination half life in dog plasma at 0.41 mg/kg, iv and 0.41 to 2.05 mg/kg, sc by LC-MS/MS analysis. The following applies: read-out: beta t1/2 (converted). Format: ADME, organism-based, Canis lupus familiaris.
The test system of data set [12] is Human immunodeficiency virus 1. As to the kind of experiment: Antiviral activity against HIV1 infected in human MT4 cells assessed as reduction in virus-induced cytopathic effect after 4 to 5 days by MTS assay. It is filed as functional, organism-based. The following applies: Human immunodeficiency virus 1, MT4.
Data set [13] has as its system Human immunodeficiency virus 2. Description: Antiviral activity against HIV2 ROD infected in human MT4 cells assessed as reduction in virus-induced cytopathic effect after 5 days by MTT assay. The following applies: Human immunodeficiency virus 2, ISOLATE ROD, MT4, 120 h.

Consider `c1cc(CN2CCCSCCSCCCNCC2)ccc1CN1CCCSCCSCCCNCC1`, for which the pEC50 in data set [1] was below 5.17. Still for that read-out and setting: the same measure for `c1cc(CN2CCCOCCOCCCNCC2)ccc1CN1CCCOCCOCCCNCC1`: below 3.44. Turning to `C1CNCCNCCCN[C@H]([C@@H]2CNCCCNCCNCCCN2)CNC1`, the negative-log EC50 (pEC50) in data set [1] was 7.00. Moreover, the selectivity ratio in data set [2] is above 1000. For the molecule `C1CNCCNCCCN(CCCN2CCCNCCNCCCNCC2)CCNC1`, in [1], the negative logarithm of the EC50 (pEC50) is 6.61. Moreover, in [2], the selectivity ratio is above 2500. In the case of `c1ccc2c(NC3CCNCC3)nc(NCc3ccc(CNCCCNC4CCCCC4)cc3)nc2c1`, in [3], the negative-log EC50 (pEC50) was 7.16. For `Cc1cn([C@H]2C[C@H](N=[N+]=[N-])[C@@H](COC(=O)CCCCN3CCCN(Cc4ccc(CN5CCCNCCNCCCNCC5)cc4)CCNCCCNCC3)O2)c(=O)[nH]c1=O`, the negative logarithm of the EC50 (pEC50) in data set [4] is 8.30. In addition, the selectivity ratio in data set [5] stood at 15000. Consider `c1cc(CN2CCCNCCOCCCNCC2)ccc1CN1CCCNCCOCCCNCC1`, for which the negative logarithm of the EC50 (pEC50) in [1] was 5.35. As for `Cc1cn([C@H]2C[C@H](N=[N+]=[N-])[C@@H](COC(=O)CCCCN3CCCNCCNCCCNCC3)O2)c(=O)[nH]c1=O`, in data set [4], the pEC50 was 8.00.

With `CC(C)CN(CCC[C@H](NC(=O)c1ccc(CNCc2ncc[nH]2)cc1)C(=O)N[C@@H](C)c1cccc2ccccc12)CC(C)C`, the negative-log EC50 (pEC50) in [1] was 8.17. On to `Cc1cn([C@H]2C[C@H](N=[N+]=[N-])[C@@H](COC(=O)CCCCN3CCCN(Cc4ccc(CN5CCCN(C(=O)OC(C)(C)C)CCN(C(=O)OC(C)(C)C)CCCN(C(=O)OC(C)(C)C)CC5)cc4)CCN(C(=O)OC(C)(C)C)CCCN(C(=O)OC(C)(C)C)CC3)O2)c(=O)[nH]c1=O`, for which, in [4], the pEC50 is 8.30. Further, in data set [5], the selectivity ratio amounted to 1000. As for `c1cc(CN2CCCNCCCCCCNCC2)ccc1CN1CCCNCCCCCCNCC1`, the pEC50 in data set [1] was 5.02. Consider `Clc1cc(CN2CCCNCCNCCCNCC2)cc(Cl)n1`, for which the pEC50 in [6], in data set [7] and in data set [8] was 5.92 in each case. In the case of `CCCN(CCC)CCCCNC(=O)c1ccc(CN(Cc2ncc[nH]2)Cc2ncc[nH]2)cc1`, the pEC50 in [1] is 8.40.

As for `Cn1c(CN(CCN2CCCCC2)CC2CCCN(C3CCCC3)C2)nc2ccccc21` (centres undefined), the negative-log EC50 (pEC50) in data set [9] was 6.22. Take `c1ccc(CNCc2ccc(CN3CCCNCCNCCCNCC3)cc2)nc1`: the time to peak (Tmax) in data set [10] was 15 min. The half-life in data set [11] is 93.6 min. Also, the negative logarithm of the EC50 (pEC50) in data set [12] was 9.00.

Turning to `c1cc(CN2CCCNCCNCCCNCC2)ccc1CN1CCCNCCNCCCNCC1` [PLERIXAFOR], the negative-log EC50 (pEC50) in data set [13] is 8.70.
